Measurements reported in ChEMBL document CHEMBL1135684, “Identification of arodyn, a novel acetylated dynorphin A-(1-11) analogue, as a kappa opioid receptor antagonist” (J Med Chem, 2002).
pKi: −log10 of the molar value. Where a SMILES comes first, the peptide text is derived from it. [ ]: non-standard residue; d: D form.

What was measured:
[1] = target: Delta-type opioid receptor (Homo sapiens, UniProt P41143); assay: Binding affinity towards Opioid receptor delta 1 using [3H]DPDPE as radioligand; set-up: species or system Cricetulus griseus
Mu-type opioid receptor = Mu-type opioid receptor (Homo sapiens, UniProt P35372); assay: Binding affinity towards Opioid receptor mu 1 using [3H]DAMGO as radioligand
[2] = target: Kappa-type opioid receptor (Homo sapiens, UniProt P41145); assay: Binding affinity towards Opioid receptor kappa 1 using [3H]diprenorphine as radioligand expressed on chinese hamster ovary (CHO) cells; format: cell-based
Sequence of Kappa-type opioid receptor (P41145 whole entry): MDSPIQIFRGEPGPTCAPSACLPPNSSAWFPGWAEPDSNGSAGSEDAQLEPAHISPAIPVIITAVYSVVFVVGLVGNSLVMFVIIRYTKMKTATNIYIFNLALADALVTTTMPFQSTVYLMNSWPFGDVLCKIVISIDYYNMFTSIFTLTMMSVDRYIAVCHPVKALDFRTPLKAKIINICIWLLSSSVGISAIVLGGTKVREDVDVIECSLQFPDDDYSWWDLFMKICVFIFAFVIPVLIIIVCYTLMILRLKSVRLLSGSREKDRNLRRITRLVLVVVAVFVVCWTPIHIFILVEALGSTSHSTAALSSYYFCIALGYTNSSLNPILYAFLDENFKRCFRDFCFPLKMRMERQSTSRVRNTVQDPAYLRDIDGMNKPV

Sequence of Mu-type opioid receptor (P35372 whole entry): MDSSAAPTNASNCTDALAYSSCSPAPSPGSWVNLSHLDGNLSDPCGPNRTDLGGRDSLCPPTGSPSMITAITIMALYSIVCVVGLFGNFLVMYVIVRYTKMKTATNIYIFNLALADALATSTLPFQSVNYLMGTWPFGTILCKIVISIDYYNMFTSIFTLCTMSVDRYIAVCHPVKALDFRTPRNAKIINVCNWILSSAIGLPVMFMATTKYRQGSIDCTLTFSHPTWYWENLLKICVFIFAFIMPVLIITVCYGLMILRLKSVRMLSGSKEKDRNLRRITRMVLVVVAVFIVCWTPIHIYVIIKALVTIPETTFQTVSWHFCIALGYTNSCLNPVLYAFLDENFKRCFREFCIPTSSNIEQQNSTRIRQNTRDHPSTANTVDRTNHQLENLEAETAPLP
Sequence of Delta-type opioid receptor (P41143 whole entry): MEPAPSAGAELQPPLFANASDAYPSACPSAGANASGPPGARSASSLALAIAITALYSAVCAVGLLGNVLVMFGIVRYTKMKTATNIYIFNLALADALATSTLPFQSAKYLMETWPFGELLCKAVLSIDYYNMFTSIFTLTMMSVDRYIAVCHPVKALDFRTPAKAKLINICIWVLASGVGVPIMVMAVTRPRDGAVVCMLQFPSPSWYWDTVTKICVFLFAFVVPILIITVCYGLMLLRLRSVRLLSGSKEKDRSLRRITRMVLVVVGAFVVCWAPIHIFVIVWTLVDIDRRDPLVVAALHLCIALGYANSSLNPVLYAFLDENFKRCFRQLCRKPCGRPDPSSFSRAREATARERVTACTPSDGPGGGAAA

Compound | pKi [1] | pKi (Mu-type opioid receptor) | pKi [2]
CC(=O)N[C@@H](Cc1ccccc1)C(=O)N[C@@H](Cc1ccccc1)C(=O)N[C@@H](Cc1ccccc1)C(=O)N[C@@H](CCCNC(=N)N)C(=O)N[C@@H](CC(C)C)C(=O)N[C@@H](CCCNC(=N)N)C(=O)N[C@@H](CCCNC(=N)N)C(=O)N[C@H](C)C(=O)N[C@@H](CCCNC(=N)N)C(=O)N1CCC[C@H]1C(=O)N[C@@H](CCCCN)C(N)=O (Ac-FFFRLRR[dA]RPK-NH2) | 5.23 |  | 
CSCC[C@H](NC(=O)[C@H](Cc1ccccc1)NC(=O)[C@H](CCCN=C(N)N)NC(C)=O)C(=O)N[C@@H](Cc1c[nH]c2ccccc12)C(=O)N[C@@H](CCSC)C(=O)N[C@@H](CCCN=C(N)N)C(=O)N[C@@H](CCCN=C(N)N)C(=O)N[C@H](C)C(=O)N[C@@H](CCCN=C(N)N)C(=O)N1CCC[C@H]1C(=O)N[C@@H](CCCCN)C(N)=O [EXTACET] |  | 8.95 | 8.18
